{
  "source": "paper PMC7355430",
  "about": "“Imunofan—RDKVYR Peptide—Stimulates Skin Cell Proliferation and Promotes Tissue Repair” (Molecules, 2020)",
  "assay_in_all_cases": "XTT proliferation assay",
  "type_in_all_cases": "cell-based, human",
  "key": {"46BR.1N fibroblasts": {"system": "46BR.1N fibroblasts", "conditions": "48 h, 0.1–100 µg/mL, serum-free DMEM, n=16", "method": "(§1) XTT assay, which is widely used in the measurement of the effect of bioactive compounds (e.g., cytokines, growth factors, and peptides) on cell proliferation was used for the evaluation of IM effect on skin cells and ASCs proliferation. Cells were seeded at a density of 5000 cells per well into 96-well plates (BD, cat.no. 353872), in a medium supplemented with 10% of FBS, which after 24 h was exchanged for a serum-free DMEM medium containing appropriate concentrations of the IM peptide. IM solutions used in the experiments were prepared with double distilled water under sterile conditions. The cells were incubated with the peptide for 48 h or 72 h, then XTT reagent was added and the plates were incubated at 37 °C for 4 h in the presence of 5% CO2, following manufacturer’s instructions (Sigma-Aldrich, St. Louis, MO, USA). Plates were then read using a standard plate reader at OD 490 nm. Cell proliferation was normalized with respect to an untreated control (100%)."}, "ASCs": {"system": "ASCs", "conditions": "48 h, 1.0 and 10 µg/mL, serum-free DMEM, n=16", "method": "as §1"}, "HaCaT keratinocytes": {"system": "HaCaT keratinocytes", "method": "as §1"}},
  "note": "Peptide text beside a SMILES is read from it.",
  "data": [
    {"smiles": "CC(C)[C@H](NC(=O)[C@H](CCCCN)NC(=O)[C@H](CC(=O)O)NC(=O)[C@@H](N)CCCNC(=N)N)C(=O)N[C@@H](Cc1ccc(O)cc1)C(=O)N[C@@H](CCCNC(=N)N)C(=O)O", "note": "[IM, H-Arg-Asp-Lys-Val-Tyr-Arg-OH] (H-RDKVYR-OH)", "values": [
      {"measurement": "increase in proliferation compared to the control", "setting": "46BR.1N fibroblasts", "value": "20–40%"},
      {"measurement": "increase in proliferation", "setting": "ASCs", "value": 10, "unit": "%"},
      {"measurement": "increase in cell proliferation", "setting": "HaCaT keratinocytes; 48 h, 0.1 and 1 µg/mL, serum-free DMEM, XTT, n=16", "value": "20–50%"},
      {"measurement": "increase in proliferation of keratinocytes (abstract)", "setting": "HaCaT keratinocytes; as summarised in the abstract, p < 0.05", "value": "20–50%"}
    ]}
  ]
}
